Where “and” joins values, the source holds several entries; their conditions need not be identical. Equal values may be shown once.
Assays:
[1] = system: human primary hepatocytes; experiment: Metabolic disposition of [^14C]-Compound 1 and [^14C]-2′-C-methyl guanosine in human primary hepatocytes (incubation medium, cellular extracts, nucleotide levels); assay type: in vitro ADME; details: human hepatocytes Hu775
Method: (§1) Primary hepatocytes: Freshly isolated cells from animal and human liver were obtained in suspension on ice. Cells were pelleted by centrifugation at 70-75×g (rat) or 95-90×g (monkey and human) and resuspended at 0.8 million cells per mL of platting medium (William's E supplemented with 5% FBS, 0.5% penicillin-streptomycin, 1% L-glutamine, 4 μg/mL insulin and 1 μM dexamethasone). Multi-well collagen I-coated plates (rat tail collagen type I; 12- or 6-well) were then seeded by addition of 1 mL (12-well; 0.8 million cells/well) or 2 mL (6-well; 1.6 million cells/well) of cell suspension. The plates were gently shaken to evenly distribute the cells and placed in an incubator at 37° C. for approximately 4 to 6 hours to allow cells to attach. Once cells were attached, the platting medium was removed and replaced with hepatocyte culture medium (William's E supplemented with penicillin-streptomycin, 1% L-glutamine, 1% insulin-transferrin-selenium and 0.1 μM dexamethasone). Cells were left overnight in an incubator at 37° C. to acclimatize to culture and the medium.
(§2) Hepatocyte incubations with radiolabeled Compound 1 and 2′-C-methyl guanosine, both labeled in the C-8 position of the guanine moiety, were conducted at a final volume of 2.0 mL hepatocyte culture medium/well ([…]). Culture medium from overnight incubation of cells was removed and replaced with fresh medium, pre-warmed to 37° C., containing 1 or 10 μM [^14C]-Compound 1 ([…]) or [^14C]-2′-C-methyl guanosine (127 DPM/μmol) from a stock solution in DMSO (final DMSO concentration was 0.1%) or 50% ethanol (final ethanol concentration was 0.2%). After 1, 4, 8 and 24 hours, 0.5-1.0 mL of incubation medium was removed and stored at −20° C. until analysis (described below). The remaining medium was discarded and cell monolayers were carefully washed two times with ice-cold PBS. Following the last wash, all PBS was carefully removed and 1.0 mL of extraction solution (ice-cold 70% methanol) added. Cells were scrapped off and suspended in the extraction solution, transferred to 2 mL polypropylene microfuge tubes and intracellular contents extracted overnight at −20° C.
(§3) Preliminary identification of putative metabolites was conducted by comparing the retention time of observed metabolites in incubation medium and cellular extracts with retention times obtained with chemically synthesized standards using the chromatography conditions described below. Further identification of 2′-C-methyl guanosine nucleotides (mono-, di- and triphosphate) was carried out by incubating cellular extract samples with alkaline phosphatase (10 units for 60 min at 37° C.) and comparing the HPLC retention times of the resulting nucleosides with that of authentic 2′-C-methyl guanosine.
(§4) Cellular extracts were prepared by centrifugation at 16,000 RCF using an Eppendorf microcentrifuge (Eppendorf, Model 5415D) for 10 min to remove cellular debris. An aliquot of 5-10 μL of the supernatant was added to 5 mL of EcoLite™ (MP, Irvine, Calif.) liquid scintillation cocktail and radioactivity measured by liquid scintillation counting (LSC) using a Beckman Coulter LS6500 multipurpose liquid scintillation counter (Beckman Instruments, Fullerton, Calif.). The remaining sample was then dried using a Labconco refrigerated centrivap concentrator (Labconco, Kansas City, Mo.). Dry extracts were reconstituted in 120 μL of HPLC-grade water and centrifuged at 16,000 RCF using an Eppendorf microcentrifuge for 10 min. Prior to HPLC analysis (described below), radioactivity of the concentrated extracts was measured by LSC using 5 μL aliquots. Extraction recovery was then determined by comparing total radioactivity in extracts before and after drying. The remaining extract was then analyzed by HPLC with online radioactivity detection using a Flow Scintillation Analyzer Radiomatic™ 515TR. Radioactivity in the separated components was quantified by integrating the peaks using Flo-One™ Software (Perkin Elmer Life Sciences). […]

[2] = system: monkey primary hepatocytes; experiment: Metabolic disposition of [^14C]-Compound 1 and [^14C]-2′-C-methyl guanosine in monkey primary hepatocytes (incubation medium, cellular extracts, nucleotide levels); assay type: in vitro ADME, Cynomolgus monkey
Method: as §1, §2, §3, §4

[3] = monkey hepatocytes (Cy234), 10 μM [^14C]-Compound 1, 4 h
[4] = monkey hepatocytes Cy230, 10 μM [^14C]-2′-C-methyl guanosine, 1 h
[5] = monkey hepatocytes Cy230, 10 μM [^14C]-2′-C-methyl guanosine, 8 h
[6] = monkey hepatocytes Cy230, 10 μM [^14C]-2′-C-methyl guanosine, 24 h
[7] = monkey hepatocytes Cy234, 10 μM [^14C]-2′-C-methyl guanosine, 1 h
[8] = monkey hepatocytes Cy234, 10 μM [^14C]-2′-C-methyl guanosine, 4 h
[9] = monkey hepatocytes Cy234, 10 μM [^14C]-2′-C-methyl guanosine, 8 h
[10] = monkey hepatocytes Cy234, 10 μM [^14C]-2′-C-methyl guanosine, 24 h

C[C@@]1(O)[C@H](O)[C@@H](COP(=O)(O)O)O[C@H]1n1cnc2c(=O)[nH]c(N)nc21 [Compound 5, [(2R)-2-methyl-β-D-ribofuranosyl]guanine 5′-monophosphate]
2′-C-methyl guanosine nucleotide levels in cellular extracts ([1]; 10 μM [^14C]-2′-C-methyl guanosine, 1 h): 2.80 pmol/million cells | 2′-C-methyl guanosine nucleotide levels in cellular extracts ([1]; 10 μM [^14C]-2′-C-methyl guanosine, 4 h): 4.00 pmol/million cells | 2′-C-methyl guanosine nucleotide levels in cellular extracts ([1]; 10 μM [^14C]-2′-C-methyl guanosine, 8 h): 4.90 pmol/million cells | 2′-C-methyl guanosine nucleotide levels in cellular extracts ([1]; 10 μM [^14C]-2′-C-methyl guanosine, 24 h): 16.0 pmol/million cells | 2′-C-methyl guanosine nucleotide levels in cellular extracts ([1]; 10 μM [^14C]-Compound 1, 0 h): 0 pmol/million cells | 2′-C-methyl guanosine nucleotide levels in cellular extracts ([1]; 10 μM [^14C]-Compound 1, 1 h): 10.3 pmol/million cells | 2′-C-methyl guanosine nucleotide levels in cellular extracts ([1]; 10 μM [^14C]-Compound 1, 4 h): 17.1 pmol/million cells | 2′-C-methyl guanosine nucleotide levels in cellular extracts ([1]; 10 μM [^14C]-Compound 1, 8 h): 21.9 pmol/million cells | 2′-C-methyl guanosine nucleotide levels in cellular extracts ([1]; 10 μM [^14C]-Compound 1, 24 h): 121 pmol/million cells | metabolites observed in cellular extracts (% of total radioactivity) ([2]; monkey hepatocytes (Cy230, Cy234), 10 μM [^14C]-Compound 1, 8 h): 3.84% and 5.38% | metabolites observed in cellular extracts (% of total radioactivity) ([2]; monkey hepatocytes (Cy230, Cy234), 10 μM [^14C]-Compound 1, 24 h): 6.96% and 3.34% | 2′-C-methyl guanosine nucleotide levels in cellular extracts [2, 3]: 14.3 pmol/million cells | metabolites observed in cellular extracts (% of total radioactivity) [2, 3]: 5.47% | metabolites observed in medium (% of total radioactivity) ([2]; monkey hepatocytes (lot Cy234), 10 μM [^14C]-Compound 1, 4 h): 19.0% | metabolites observed in medium (% of total radioactivity) ([2]; monkey hepatocytes (lots Cy230, Cy234), 10 μM [^14C]-Compound 1, 0 h): BLD | metabolites observed in medium (% of total radioactivity) ([2]; monkey hepatocytes (lots Cy230, Cy234), 10 μM [^14C]-Compound 1, 24 h): 8% and 8.4% and 7.5% | 2′-C-methyl guanosine nucleotide levels in cellular extracts ([2]; monkey hepatocytes Cy230, 10 μM [^14C]-2′-C-methyl guanosine, 0 h): 0 pmol/million cells | 2′-C-methyl guanosine nucleotide levels in cellular extracts [2, 4]: BLD^b (BLD = below limit of detection (0.02 pmol/million cells)) | Major metabolites observed in cellular extracts (% of total radioactivity) [2, 4]: BLD^b (BLD = below limit of detection (30 DPM)) | 2′-C-methyl guanosine nucleotide levels in cellular extracts [2, 5]: BLD (BLD = below limit of detection (0.02 pmol/million cells)) | Major metabolites observed in cellular extracts (% of total radioactivity) [2, 5]: BLD (BLD = below limit of detection (30 DPM)) | 2′-C-methyl guanosine nucleotide levels in cellular extracts [2, 6]: BLD (BLD = below limit of detection (0.02 pmol/million cells)) | Major metabolites observed in cellular extracts (% of total radioactivity) [2, 6]: BLD (BLD = below limit of detection (30 DPM)) | 2′-C-methyl guanosine nucleotide levels in cellular extracts ([2]; monkey hepatocytes Cy230, 10 μM [^14C]-Compound 1, 0 h): 0 pmol/million cells | 2′-C-methyl guanosine nucleotide levels in cellular extracts ([2]; monkey hepatocytes Cy230, 10 μM [^14C]-Compound 1, 1 h): 23.9 pmol/million cells | 2′-C-methyl guanosine nucleotide levels in cellular extracts ([2]; monkey hepatocytes Cy230, 10 μM [^14C]-Compound 1, 8 h): 42.5 pmol/million cells | 2′-C-methyl guanosine nucleotide levels in cellular extracts ([2]; monkey hepatocytes Cy230, 10 μM [^14C]-Compound 1, 24 h): 33.2 pmol/million cells | 2′-C-methyl guanosine nucleotide levels in cellular extracts ([2]; monkey hepatocytes Cy234, 10 μM [^14C]-2′-C-methyl guanosine, 0 h): 0 pmol/million cells | 2′-C-methyl guanosine nucleotide levels in cellular extracts [2, 7]: 0.95 pmol/million cells | Major metabolites observed in cellular extracts (% of total radioactivity) [2, 7]: 2.19 % of total radioactivity | 2′-C-methyl guanosine nucleotide levels in cellular extracts [2, 8]: BLD (BLD = below limit of detection (0.02 pmol/million cells)) | Major metabolites observed in cellular extracts (% of total radioactivity) [2, 8]: BLD (BLD = below limit of detection (30 DPM)) | 2′-C-methyl guanosine nucleotide levels in cellular extracts [2, 9]: 3.00 pmol/million cells | Major metabolites observed in cellular extracts (% of total radioactivity) [2, 9]: 3.32 % of total radioactivity | 2′-C-methyl guanosine nucleotide levels in cellular extracts [2, 10]: 5.50 pmol/million cells | Major metabolites observed in cellular extracts (% of total radioactivity) [2, 10]: 5.03 % of total radioactivity | 2′-C-methyl guanosine nucleotide levels in cellular extracts ([2]; monkey hepatocytes Cy234, 10 μM [^14C]-Compound 1, 0 h): 0 pmol/million cells | 2′-C-methyl guanosine nucleotide levels in cellular extracts ([2]; monkey hepatocytes Cy234, 10 μM [^14C]-Compound 1, 1 h): 11.7 pmol/million cells | 2′-C-methyl guanosine nucleotide levels in cellular extracts ([2]; monkey hepatocytes Cy234, 10 μM [^14C]-Compound 1, 8 h): 33.0 pmol/million cells | 2′-C-methyl guanosine nucleotide levels in cellular extracts ([2]; monkey hepatocytes Cy234, 10 μM [^14C]-Compound 1, 24 h): 23.2 pmol/million cells

— patent publication US20100003217A1, “Compounds and Pharmaceutical Compositions for the Treatment of Viral Infections” (priority 2008, published 2010)
